The results in this text go back to patent US7414075B2, “Composition for lowering internal lipid content” (Ajinomoto Co., Inc., priority 2003, dated 2008).

Format in all cases: in vivo, rat
For test [1], the system named is male Wistar strain rats. Kind of test: Influence on serum cholesterol and arteriosclerosis index. As to conditions: 0.1 mmol per kg feed, four weeks, * p<0.05. The procedure:
(§1) Twenty-four nine-week old male Wistar strain rats were used and divided into four groups each comprising six rats, including a control group, a 0.1 mmol/kg capsaicin group, a 0.1 mmol/kg capsinoid group, and a 1.0 mmol/kg capsinoid group. A 20% lard food to which 1% cholesterol was added was administered as a feed to the control group. For the remaining three groups, capsaicin of 0.1 mmol per kg final concentration of the feed, capsinoid of 0.1 mmol per kg final concentration of the feed, and capsinoid of 1.0 mmol per kg final concentration of the feed, respectively, were added to the feed, similar to the control group. The capsinoid was a mixture of 4-hydroxy-3-methoxybenzyl (E)-8-methyl-6-nonenoate and 4-hydroxy-3-methoxybenzyl 8-methylnonanoate in about 2:1 ratio.
(§2) The above groups each comprising six rats were subjected to pair feeding for four weeks. Breeding of the experimental animals was conducted in each individual cage and, during the breeding period, body weight was measured once a week and ingested amount of the feed was calculated by deducting the residue from the administered amount. Feces were collected for three days before dissection. After completion of breeding, the rats were sacrificed and dissected. Blood was collected. The liver, the fat around the kidney, and the fat around the epididymis were each separately excised and weighed. Furthermore, the ratio of the excised organs to the total body weight was calculated. Unless otherwise mentioned, the results in the following tables are shown in terms of mean value±standard deviation and, statistically, test of significance was conducted at p<0.05 by ANOVA and Duncan's multiple range test. In the tables, * means p<0.05.
Blood was collected from the experimental animals bred as above and total cholesterol (T-chol) and HDL cholesterol (HDL-chol) in the serum was measured. More specifically, total cholesterol and HDL cholesterol were measured according to a method disclosed in “Akiko Tsujihara and Yumiko Tani: Influence of yucca saponin and pure konjak powder on lipid metabolism of rats fed with a high-fat and high-cholesterol feed: Eiyo Shokuryo Gakkaishi, vol. 51, pp. 157-163 (1998)”. The Arteriosclerosis index was calculated by (T-chol-HDL-chol)/(HDL-chol). The results are shown in Table 4, including the amount of triglyceride in the serum (TG).

Test [2] in a line: Breeding process: body weight and ingested amount of feed in rats on 20% lard food with 1% cholesterol. As to conditions: 0.1 mmol per kg feed, mean ± SD. The procedure:
as §1, §2

Test [3] deals with male Wistar strain rats. Kind of test: Excretion of cholesterol into feces during three days before dissection. As to conditions: 0.1 mmol per kg feed, mean ± SD. How it is done: as §1
The above groups each comprising six rats were subjected to pair feeding for four weeks. Breeding of the experimental animals was conducted in each individual cage and, during the breeding period, body weight was measured once a week and ingested amount of the feed was calculated by deducting the residue from the administered amount. Feces were collected for three days before dissection. After completion of breeding, the rats were sacrificed and dissected. Blood was collected. […] Furthermore, the ratio of the excised organs to the total body weight was calculated. […]

Test [4] concerns male Wistar strain rats. Kind of test: Weight of liver, fat around kidney and fat around epididymis, and ratio to total body weight. The conditions noted are these: 0.1 mmol per kg feed, four weeks. The procedure: as §1, §2

Consider `COc1cc(CNC(=O)CCCC/C=C/C(C)C)ccc1O` [Capsaicin, capsaicin], for which, in the test on male Wistar strain rats [1] ((T-chol-HDL-chol)/(HDL-chol)), the “Arteriosclerosis Index” value stood at 1.2 ± 0.4. In addition, in the test with male Wistar strain rats [1] (serum, mean ± SD), the “HDL-chol (HDL cholesterol in serum)” value is 34.2 ± 6.5* mg/dl, the “T-chol (total cholesterol in serum)” value is reported as 71.2 ± 8.1* mg/dl and the “TG (triglyceride in the serum)” value is 25.5 ± 5.3* mg/dl. In test [2] (four weeks), the “Body Weight (g) on Dissected Day” value is 367 ± 12 g and the “Percentage Increase in Body Weight” value was 133 ± 4%. In test [2] (pair feeding four weeks), the “Body Weight (g) on Final Day of Breeding” value amounted to 392 ± 11 g. Further, in the test on male Wistar strain rats [3], the “Cholesterol in Feces, Excreted Amount” value was 240 ± 27 mg/3 days and the “Cholesterol in Feces, Excreted Rate” value is recorded as 48.6 ± 3.4%. In the test with male Wistar strain rats [4] (mean ± SD), the “Fat (g) around Epididymis” value was 4.6 ± 0.5 g, the “Fat (g) around Kidney” value was determined as 3.8 ± 0.6 g and the “Liver” value is recorded as 14.4 ± 0.9 g. Also, in the test on male Wistar strain rats [4] (ratio to total body weight), the “Fat (%) around Epididymis” value is listed as 1.3 ± 0.1% and the “Fat (%) around Kidney” value came to 1.0 ± 0.1%. In addition, the “Liver (%)” value in the test on male Wistar strain rats [4] (ratio to total body weight, * p<0.05) is recorded as 3.9 ± 0.1* %.
